Data: ChEMBL document CHEMBL1153745, “The Caulerpa pigment caulerpin inhibits HIF-1 activation and mitochondrial respiration” (J Nat Prod, 2009)
Calls of active or inactive are those of the source. No cut-off for these calls is given here.

Key:
T47D [1] = experiment: Inhibition of hypoxia-induced nuclear HIF1alpha accumulation in human T47D cells at 10 uM after 4 hrs by Western blot analysis; type: functional, cell-based
T47D [2] = experiment: Inhibition of electron transport protein complex 2 in human T47D cells assessed as decrease in oxygen consumption at 30 uM pretreated for 2 hrs before succinate addition by mitochondrial respiration assay; type: cell-based
T47D [3] = experiment: Inhibition of hypoxia-induced GLUT1 mRNA expression in human T47D cells at 10 uM after 16 hrs by RT-PCR; type: functional, cell-based
MDA-MB-231 [4] = experiment: Cytotoxicity against human MDA-MB-231 cells up to 30 uM after 22 hrs by neutral red method; type: cell-based; details: mda-mb-231, 22 h
HUVEC [5] = experiment: Antiangiogenic activity in human HUVEC cells assessed as inhibition of hypoxic T47D cell-conditioned media-induced tube formation at 10 uM after 18 hrs by Matrigel based tube formation assay; type: functional
T47D [6] = experiment: Inhibition of electron transport protein complex 1 in human T47D cells assessed as reduction of oxygen consumption at 10 uM; type: cell-based
T47D [7] = experiment: Inhibition of hypoxia-induced VEGF mRNA expression in human T47D cells at 10 uM after 16 hrs by RT-PCR; type: functional, cell-based
T47D [8] = experiment: Effect on luciferase expression in hypoxia-stimulated human T47D cells expressing pGL3 construct at 30 uM after 16 hrs by reporter gene assay; type: functional
[9] = Growth inhibition of human HMEC cells up to 30 uM after 48 hrs by sulforhodamine B assay; type: cell-based; details: read-out: GI
T47D [10] = experiment: Inhibition of electron transport protein complex 1 in human T47D cells assessed as reduction of oxygen consumption at 30 uM; type: cell-based
T47D [11] = experiment: Inhibition of hypoxia-induced nuclear HIF1beta accumulation in human T47D cells at 10 uM after 4 hrs by Western blot analysis; type: functional, cell-based
[12] = target: T1, Hypoxia inducible factors; HIF-1-alpha, HIF-2-alpha (Homo sapiens) (UniProt Q16665+Q99814); experiment: Inhibition of 1,10-phenanthroline-induced HIF1 activation in human T47D cells after 16 hrs by pTK-HRE3-luciferase reporter gene assay; type: cell-based
T47D [13] = experiment: Growth inhibition of human T47D cells at 1 uM to 30 uM after 48 hrs by sulforhodamine B assay; type: functional, cell-based
[14] = target: T1, Hypoxia inducible factors; HIF-1-alpha, HIF-2-alpha (Homo sapiens); experiment: Inhibition of 1,10-phenanthroline-induced HIF1 activation in human T47D cells at 1 uM after 16 hrs by pTK-HRE3-luciferase reporter gene assay; type: cell-based
T47D [15] = experiment: Cytotoxicity against human T47D cells under hypoxic conditions at 30 uM after 16 hrs; type: cell-based
T47D [16] = experiment: Inhibition of electron transport protein complex 1 in human T47D cells assessed as reduction of oxygen consumption at 30 uM pretreated for 2 hrs relative to untreated control; type: cell-based
T47D [17] = experiment: Inhibition of cellular respiration in human T47D cells assessed as oxygen consumption; type: functional, cell-based
T47D [18] = experiment: Inhibition of electron transport protein complex 1 in human T47D cells assessed as decrease in oxygen consumption at 30 uM pretreated for 2 hrs before malate and pyruvate addition by mitochondrial respiration assay; type: cell-based
T47D [19] = experiment: Inhibition of hypoxia-induced VEGF mRNA expression in human T47D cells at 30 uM after 16 hrs by RT-PCR; type: functional, cell-based
T47D [20] = experiment: Inhibition of 1,10-phenanthroline-induced nuclear HIF1alpha accumulation in human T47D cells at 10 uM after 4 hrs by Western blot analysis; type: functional, cell-based
T47D [21] = experiment: Inhibition of electron transport protein complex 1 in digitonin-induced permeable human T47D cells assessed as reduction of oxygen consumption at 30 uM relative to control; type: cell-based
MDA-MB-231 [22] = experiment: Inhibition of cell migration in human MDA-MB-231 cells under hypoxic conditions after 22 hrs by wound-healing assay; type: functional, cell-based
MCF7 = experiment: Growth inhibition of human MCF7 cells at 1 uM to 30 uM after 48 hrs by sulforhodamine B assay; type: functional, cell-based
HUVEC [23] = experiment: Antiangiogenic activity in human HUVEC cells assessed as inhibition of normoxic T47D cell-conditioned media-induced tube formation at 30 uM after 18 hrs by Matrigel based tube formation assay; type: functional
T47D [24] = experiment: Inhibition of hypoxia-induced secreted VEGF protein level in human T47D cells at 10 uM after 16 hrs by ELISA; type: functional, cell-based
T47D [25] = experiment: Inhibition of electron transport protein complex 3 in human T47D cells assessed as decrease in oxygen consumption at 30 uM pretreated for 2 hrs before succinate addition by mitochondrial respiration assay; type: cell-based
DU-145 = experiment: Growth inhibition of human DU145 cells at 1 uM to 30 uM after 48 hrs by sulforhodamine B assay; type: functional, cell-based
[26] = target: T1, Hypoxia inducible factors; HIF-1-alpha, HIF-2-alpha (Homo sapiens); experiment: Inhibition of hypoxia-induced HIF1 activation in human T47D cells at 1 uM after 16 hrs by pTK-HRE3-luciferase reporter gene assay; type: cell-based
T47D [27] = experiment: Inhibition of hypoxia-induced GLUT1 mRNA expression in human T47D cells at 30 uM after 16 hrs by RT-PCR; type: functional, cell-based
MDA-MB-231 [28] = experiment: Growth inhibition of human MDA-MB-231 cells at 1 uM to 30 uM after 48 hrs by sulforhodamine B assay; type: functional, cell-based
T47D [29] = experiment: Inhibition of 1,10-phenanthroline-induced VEGF mRNA expression in human T47D cells at 30 uM after 16 hrs by RT-PCR; type: functional, cell-based
T47D [30] = experiment: Inhibition of electron transport protein complex 4 in human T47D cells assessed as decrease in oxygen consumption at 30 uM pretreated for 2 hrs before TMPD/ascorbate addition by mitochondrial respiration assay; type: cell-based
HUVEC [31] = experiment: Antiangiogenic activity in human HUVEC cells assessed as decrease in branch point number up to 30 uM after 18 hrs by Matrigel based tube formation assay; type: functional, cell-based
T47D [32] = experiment: Inhibition of secreted VEGF protein level in human T47D cells under normoxic conditions at 10 uM after 16 hrs by ELISA; type: functional, cell-based
PC-3 = experiment: Growth inhibition of human PC3 cells at 30 uM after 48 hrs by sulforhodamine B assay; type: functional; details: PC-3, 48 h, read-out: GI
T47D [33] = experiment: Inhibition of electron transport protein complex 1 in digitonin-permeabilized human T47D cells assessed as decrease in oxygen consumption at 30 uM by mitochondrial respiration assay; type: cell-based
HUVEC [34] = experiment: Antiangiogenic activity in human HUVEC cells assessed as inhibition of hypoxic T47D cell-conditioned media-induced tube formation at 30 uM after 18 hrs by Matrigel based tube formation assay; type: functional
MDA-MB-231 [35] = experiment: Inhibition of cell migration in human MDA-MB-231 cells under normoxic conditions after 22 hrs by wound-healing assay; type: functional, cell-based
MDA-MB-231 [36] = experiment: Cytotoxicity against human MDA-MB-231 cells under hypoxic conditions up to 30 uM after 22 hrs by neutral red method; type: cell-based; details: mda-mb-231, 22 h
T47D [37] = experiment: Inhibition of 1,10-phenanthroline-induced GLUT1 mRNA expression in human T47D cells at 30 uM after 16 hrs by RT-PCR; type: functional, cell-based
HUVEC [38] = experiment: Antiangiogenic activity in human HUVEC cells assessed as decrease in tube length up to 30 uM after 18 hrs by Matrigel based tube formation assay; type: functional, cell-based

Activity [12]: Dose-dependent effect | Activity [14]: Active | Activity [26]: Active
SMILES: COC(=O)/C1=C/c2c([nH]c3ccccc23)/C(C(=O)OC)=C\c2c1[nH]c1ccccc21 [CAULERPIN]
Activity (T47D [1]): Active | Activity (T47D [2]): inactive | Activity (T47D [3]): inactive | Activity (MDA-MB-231 [4]): 15% | Activity (HUVEC [5]): Active | Activity (T47D [6]): inactive | Activity (T47D [7]): inactive | Activity (T47D [8]): <=10% | inhibition at 48 h [9]: < 25% | inhibition (T47D [10]): 30% | Activity (T47D [11]): inactive | Activity (T47D [13]): Active | Activity (T47D [15]): <= 10% | inhibition (T47D [16]): 87% | Activity (T47D [17]): Dose-dependent effect | Activity (T47D [18]): Active | Activity (T47D [19]): Active | Activity (T47D [20]): inactive | inhibition (T47D [21]): 57% | Activity (MDA-MB-231 [22]): Dose-dependent effect | Activity (MCF7): Active | Activity (HUVEC [23]): inactive | Activity (T47D [24]): Active | Activity (T47D [25]): inactive | Activity (DU-145): inactive | Activity (T47D [27]): Active | Activity (MDA-MB-231 [28]): Active | Activity (T47D [29]): inactive | Activity (T47D [30]): inactive | Activity (HUVEC [31]): Active | Activity (T47D [32]): inactive | inhibition of growth at 30 µM (PC-3): 52% | Activity (T47D [33]): Active | Activity (HUVEC [34]): Active | Activity (MDA-MB-231 [35]): Dose-dependent effect | Activity (MDA-MB-231 [36]): 15% | Activity (T47D [37]): inactive | Activity (HUVEC [38]): Active
